Source: ChEMBL document CHEMBL1148247, “Synthesis and histone deacetylase inhibitory activity of cyclic tetrapeptides containing a retrohydroxamate as zinc ligand” (Bioorg Med Chem Lett, 2004)
Blank lines part the entries; values can stand above or below the compound they belong to. Where a SMILES comes first, the peptide text is derived from it. [ ]: non-standard residue; d: D form. The star is where a group is joined. Asu = N[C@@H](CCCCCC(=O)O)C(=O)O; aIle = CC[C@@H](C)[C@H](N)C(=O)O; NHOH = ON*

Tests used:
Histone deacetylase = assay: Inhibitory activity against histone deacetylases (HDAC) prepared from mouse melanoma B16/BL6 cells; format: cell-based
[1] = target: T1, Protein deacetylase HDAC6 (Mus musculus, UniProt Q9Z2V5); assay: Inhibitory activity against histone deacetylase 6 prepared from mouse melanoma B16/BL6 cells; format: cell-based
T1 sequence (Q9Z2V5 whole entry): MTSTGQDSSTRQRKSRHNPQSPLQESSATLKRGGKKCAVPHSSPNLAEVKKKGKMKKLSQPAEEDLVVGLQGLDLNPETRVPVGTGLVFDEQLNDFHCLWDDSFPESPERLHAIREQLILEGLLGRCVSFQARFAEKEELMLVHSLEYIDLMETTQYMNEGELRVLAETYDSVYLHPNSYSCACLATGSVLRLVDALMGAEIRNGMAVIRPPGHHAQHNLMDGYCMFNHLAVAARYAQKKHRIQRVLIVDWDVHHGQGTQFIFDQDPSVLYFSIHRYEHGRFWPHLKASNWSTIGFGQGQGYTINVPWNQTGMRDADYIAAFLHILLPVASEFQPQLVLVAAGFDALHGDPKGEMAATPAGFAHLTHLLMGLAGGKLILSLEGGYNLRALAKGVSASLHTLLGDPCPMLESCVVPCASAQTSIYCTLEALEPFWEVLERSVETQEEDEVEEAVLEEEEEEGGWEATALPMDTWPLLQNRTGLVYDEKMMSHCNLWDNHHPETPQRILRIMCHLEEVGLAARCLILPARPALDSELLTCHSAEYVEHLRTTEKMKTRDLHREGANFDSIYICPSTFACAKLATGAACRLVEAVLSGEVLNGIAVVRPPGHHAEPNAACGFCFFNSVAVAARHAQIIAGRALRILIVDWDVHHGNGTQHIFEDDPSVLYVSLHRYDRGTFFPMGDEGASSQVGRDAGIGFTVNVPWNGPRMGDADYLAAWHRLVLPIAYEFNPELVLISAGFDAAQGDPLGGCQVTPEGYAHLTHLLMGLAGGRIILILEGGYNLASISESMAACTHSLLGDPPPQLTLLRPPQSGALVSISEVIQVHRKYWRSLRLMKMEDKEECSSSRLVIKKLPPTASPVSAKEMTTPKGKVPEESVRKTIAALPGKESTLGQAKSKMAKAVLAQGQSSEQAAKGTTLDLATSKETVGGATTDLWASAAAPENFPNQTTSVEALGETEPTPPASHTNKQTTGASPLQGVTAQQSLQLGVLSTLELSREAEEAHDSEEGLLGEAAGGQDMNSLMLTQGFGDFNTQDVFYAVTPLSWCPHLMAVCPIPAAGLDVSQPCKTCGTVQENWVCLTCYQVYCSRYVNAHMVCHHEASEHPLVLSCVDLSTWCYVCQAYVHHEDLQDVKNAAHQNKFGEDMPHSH

Histone deacetylase 8 = target: T2, Histone deacetylase 8 (Mus musculus, UniProt Q8VH37); assay: Inhibitory activity against histone deacetylase 8 prepared from mouse melanoma B16/BL6 cells; format: cell-based
T2 sequence (Q8VH37 whole entry): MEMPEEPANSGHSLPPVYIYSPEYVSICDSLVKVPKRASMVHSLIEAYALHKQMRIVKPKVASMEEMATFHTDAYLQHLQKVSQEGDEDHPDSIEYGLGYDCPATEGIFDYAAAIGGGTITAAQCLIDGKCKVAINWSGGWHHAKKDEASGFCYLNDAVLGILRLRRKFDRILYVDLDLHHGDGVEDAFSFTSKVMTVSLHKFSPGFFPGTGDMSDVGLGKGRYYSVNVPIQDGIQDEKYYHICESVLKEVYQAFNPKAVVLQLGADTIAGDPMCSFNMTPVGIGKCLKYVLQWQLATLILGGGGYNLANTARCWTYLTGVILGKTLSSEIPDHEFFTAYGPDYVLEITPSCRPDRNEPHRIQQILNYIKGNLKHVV

Histone deacetylase 1 [2] = target: T3, Histone deacetylase 1 (Mus musculus, UniProt O09106); settings: b16/bl6
Description: (§1) Inhibitory activity against histone deacetylases (HDAC1) prepared from mouse melanoma B16/BL6 cells

Histone deacetylase 1 [3] = target: T3, Histone deacetylase 1
Description: as §1

Mus musculus = organism: Mus musculus; assay: Effective concentration in histone deacetylases (HDAC) using p21 promoter assay

T3 sequence (O09106 whole entry): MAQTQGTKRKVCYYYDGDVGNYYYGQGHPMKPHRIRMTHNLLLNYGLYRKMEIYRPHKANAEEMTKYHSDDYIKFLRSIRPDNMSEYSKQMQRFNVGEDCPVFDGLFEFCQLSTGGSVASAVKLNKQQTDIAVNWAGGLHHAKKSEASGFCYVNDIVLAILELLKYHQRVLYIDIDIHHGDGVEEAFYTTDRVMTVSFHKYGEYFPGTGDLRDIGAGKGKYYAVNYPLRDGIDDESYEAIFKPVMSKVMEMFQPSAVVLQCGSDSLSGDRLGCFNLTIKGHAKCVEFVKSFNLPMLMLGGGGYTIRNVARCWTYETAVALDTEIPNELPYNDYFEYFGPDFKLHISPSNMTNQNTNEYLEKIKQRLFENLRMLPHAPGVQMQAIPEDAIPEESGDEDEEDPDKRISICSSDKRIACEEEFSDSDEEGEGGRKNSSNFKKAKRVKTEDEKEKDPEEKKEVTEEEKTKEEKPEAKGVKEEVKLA

IC50 (Histone deacetylase): 1392 nM
Structure (SMILES): CC[C@@H](C)[C@@H]1NC(=O)[C@@H](Cc2ccc(OC)cc2)NC(=O)[C@H](CCCCN(O)C=O)NC(=O)[C@@H]2CCCCN2C1=O

IC50 (Histone deacetylase): 1350 nM
Structure (SMILES): CC[C@@H](C)[C@@H]1NC(=O)[C@@H](Cc2ccc(OC)cc2)NC(=O)[C@H](CCCCCCN(O)C=O)NC(=O)[C@@H]2CCCCN2C1=O

IC50 (Histone deacetylase): 3.96 nM
Structure (SMILES): CC[C@@H](C)[C@@H]1NC(=O)[C@@H](Cc2ccc(OC)cc2)NC(=O)[C@H](CCCCCCC(=O)NO)NC(=O)[C@@H]2CCCCN2C1=O

Structure (SMILES): CC[C@@H](C)[C@@H]1NC(=O)[C@@H](Cc2ccc(OC)cc2)NC(=O)[C@H](CCCCCN(O)C=O)NC(=O)[C@@H]2CCCN2C1=O
IC50 ([1]; b16/bl6): 29 nM
IC50 (Histone deacetylase 8; b16/bl6): 34 nM
IC50 (Histone deacetylase 1 [2]): 33 nM

IC50 (Histone deacetylase): 88400 nM
Structure (SMILES): CC[C@@H](C)[C@@H]1NC(=O)[C@@H](Cc2ccc(OC)cc2)NC(=O)[C@H](CCCCN(O)C(C)=O)NC(=O)[C@H]2CCCCN2C1=O

IC50 (Histone deacetylase 1 [3]): 0.4 nM
Structure (SMILES): CC[C@H](C)[C@@H]1NC(=O)[C@@H](Cc2ccc(OC)cc2)NC(=O)[C@H](CCCCCC(=O)NO)NC(=O)[C@H]2CCCN2C1=O (cyclo([Asu](NHOH)[dY](Me)I[dP]))

IC50 (Histone deacetylase): 141 nM
Structure (SMILES): CC[C@@H](C)[C@@H]1NC(=O)[C@@H](Cc2ccc(OC)cc2)NC(=O)[C@H](CCCCCN(O)C=O)NC(=O)[C@@H]2CCCCN2C1=O

EC1000 (Mus musculus): 0.022 µM
Structure (SMILES): CC[C@@H](C)[C@@H]1NC(=O)[C@@H](Cc2ccc(OC)cc2)NC(=O)[C@H](CCCCCC(=O)NO)NC(=O)[C@H]2CCCN2C1=O (cyclo([Asu](NHOH)[dY](Me)[aIle][dP]))

IC50 (Histone deacetylase): 88500 nM
Structure (SMILES): CC[C@@H](C)[C@@H]1NC(=O)[C@@H](Cc2ccc(OC)cc2)NC(=O)[C@H](CCCCN(O)C(C)=O)NC(=O)[C@@H]2CCCCN2C1=O

Structure (SMILES): CC[C@@H](C)[C@@H]1NC(=O)[C@@H](Cc2ccc(OC)cc2)NC(=O)[C@H](CCCCCN(O)C=O)NC(=O)[C@H]2CCCN2C1=O
IC50 [1]: 178 nM
IC50 (Histone deacetylase 8): 59 nM
EC1000 (Mus musculus): 0.61 µM
IC50 (Histone deacetylase 1 [3]): 67 nM

IC50 (Histone deacetylase): 957 nM
Structure (SMILES): CC[C@@H](C)[C@@H]1NC(=O)[C@@H](Cc2ccc(OC)cc2)NC(=O)[C@H](CCCCN(O)C=O)NC(=O)[C@H]2CCCCN2C1=O

IC50 [1]: 782 nM
IC50 (Histone deacetylase 8): 46 nM
IC50 (Histone deacetylase): 84 nM
IC50 (Histone deacetylase 1 [3]): 26 nM
Structure (SMILES): CC[C@@H](C)[C@@H]1NC(=O)[C@@H](Cc2ccc(OC)cc2)NC(=O)[C@H](CCCCCN(O)C=O)NC(=O)[C@H]2CCCCN2C1=O

IC50 (Histone deacetylase): 893 nM
Structure (SMILES): CC[C@@H](C)[C@@H]1NC(=O)[C@@H](Cc2ccc(OC)cc2)NC(=O)[C@H](CCCCCCN(O)C=O)NC(=O)[C@H]2CCCCN2C1=O

IC50 (Histone deacetylase): 43800 nM
Structure (SMILES): CC[C@@H](C)[C@@H]1NC(=O)[C@@H](Cc2ccc(OC)cc2)NC(=O)[C@H](CCCCCN(O)C(C)=O)NC(=O)[C@H]2CCCCN2C1=O

IC50 (Histone deacetylase): 58000 nM
Structure (SMILES): CC[C@@H](C)[C@@H]1NC(=O)[C@@H](Cc2ccc(OC)cc2)NC(=O)[C@H](CCCCCN(O)C(C)=O)NC(=O)[C@@H]2CCCCN2C1=O

Structure (SMILES): CC(/C=C/C(=O)NO)=C\[C@@H](C)C(=O)c1ccc(N(C)C)cc1 [TRICHOSTATIN]
EC1000 (Mus musculus): 0.19 µM
